This is an account of results in patent US8618077B2, “Compositions and methods for treating fragile X premutation RVGG repeats-mediated toxicity” (Emory University, priority 2011, dated 2013).

In test [1] the test system is flies expressing fragile X premutation rCGG repeats (elav-GAL4/+; UAS-CGG90-EGFP/+). The experiment in a line: Chemical screen / viability assay: rescue of lethality caused by neuronal expression of fragile X premutation rCGG90 repeats. The class given is in vivo, Drosophila. Particulars: for recovery of dFmr1 CGG90 mutant flies: 40 microM of compound in the food, 0% on food alone. The source says:
In particular, embodiments of the present disclosure include methods of screening compounds using a drosophila (fruit fly) based compound screen to identify drug candidates for the treatment of the fragile X-associated tremor/ataxia syndrome or other neurodegenerative disorders. […] A fly line of UAS-CGG90-EGFP transgene balanced with Cyo balancer carrying hs-hid transgene was generated. Upon heat shock, the expression of hid was activated, which led to cell death and lethality in the CGG90 dFmr1 premutation fly embryos.
The mutant embryos were placed into an appropriate container (e.g., a 96-well container) containing a food with or without a compound from a library of drugs candidates. 5 μM and 40 μM of individual compounds from a library of 2,000 FDA approved drugs and natural products (The Spectrum Collection™) were screened. Vials were then kept at 25° C. for 10 to 15 days to score for viability. The efficacy of the drug candidate was determined by scoring the number of pupae formation or the emergence of adult flies after a certain time frame. Embodiments of the present disclosure provide a screen for compounds that directly and indirectly regulate dFmr1 rCGG repeat mediated toxicity and rescue mutant flies from heat shock induced lethality. Additional details regarding the active compositions and disorders are described in the Examples below.
A Drosophila disease model of FXTAS and provided experimental evidence that fragile X premutation rCGG repeats alone are sufficient to cause neurodegeneration in a repeat-dosage manner. See Jin et al., Neuron, 2003, 39:739-747. […] Lethality occurs primarily during embryonic development before larval formation. Taking advantage of this lethality, a high-throughput strategy was designed to screen chemical libraries for small molecules relevant to FXTAS. the UAS-CGG90-EGFP transgene was balanced with a chromosome carrying a curly wing (Cyo) marker recombined with a heat shock-inducible apoptotic hid (hs-hid) transgene (w1118, UAS-CGG90-EGFP/TM2 Cyo:hs-hid). Next, the viability of adult progeny was tested using the Drosophila GAL4/UAS system. crosses of UAS-CGG90-EGFP/TM2 Cyo:hs-hid were performed with homozygous pan-neuronal elav-Gal4 driver. There was an absence of heterozygous non-Cyo adult progeny (elav-GAL4/+; UAS-CGG90-EGFP/+), which confirmed that rCGG90 repeat expression in neurons leads to lethality. The only living progenies would carry elav-GAL4/+; +/TM2 Cyo:hs-hid. Furthermore, upon heat shock, the progenies carrying elav-GAL4/+; +/TM2 Cyo:hs-hid also died, because the expression of hid leads to cell death and lethality at embryonic stages that are otherwise viable.
Since the rescue of the lethality was an easily scored phenotype, one is able to use this assay to conduct a chemical screen to identify the small molecules that can improve/restore the viability of the flies expressing fragile X premutation rCGG repeats. As depicted in schematic representation (FIG. 1A), crosses between elav-GAL4 and UAS-CGG90-EGFP/TM2 Cyo:hs-hid were raised as well as control flies into food supplemented with 40 μm of individual unique compounds from a library of 2000 US Food and Drug Administration (FDA)-approved drugs and natural products (The Spectrum Collection, MicroSource Discovery Systems, Inc.). […]

The test system of a further test is dFmr1 CGG90 mutant flies. The experiment in a line: Locomotion assay (Drosophila Activity Monitor) in flies expressing rCGG90 repeats (UAS-CGG90-EGFP/nervana-GAL4). The class given is in vivo. Particulars: for percentage of normal locomotion activity in dFmr1 CGG90 mutant flies: compound-treated flies, 50% without treatment; for effect on locomotion deficits caused by fragile X premutation rCGG repeats (in words): flies fed food containing the compound, mean locomotor activity over 7 days. On the procedure: FIG. 2A illustrates the identification of small molecules that can ameliorate the locomotion deficits caused by fragile X premutation rCGG repeats. Nervana-GAL4 driver and UAS-CGG90-EGFP/Cyo were crossed to produce progeny embryos on food supplemented with or without selected compounds as indicated. Adult progeny of genotype UAS-CGG90-EGFP/nervana were selected and 32 female virgins 48 h old were subsequently monitored for locomotor activity continuously for several weeks. The locomotion of 32 flies that were fed with fly food containing the compound each time were simultaneously monitored.
To further validate these compounds, a secondary behavioral assay was developed. In this assay, UAS-CGG90-EGFP transgenic flies were crossed with nervana-GAL4, which could drive the expression of fragile X rCGG repeats in CNS, albeit weakly, allowing us to analyze adult flies for locomotion deficits. The expression of rCGG repeats leads to locomotion defects (FIG. 2A). […] The progeny flies (UAS-CGG90-EGFP/nervana-GAL4) were collected to monitor locomotion. To continuously monitor the locomotion for a given fly, a Drosophila Activity Monitor (DAM) system was established for this purpose. See Pfeiffenberger et al., Locomotor activity level monitoring using the Drosophila Activity Monitoring (DAM) System. Cold Spring Harb. Protoc. 2010.
For each individual compound, the locomotion of 32 flies were simultaneously monitored that were fed with fly food containing the compound each time. The data were collected and analyzed for locomotor activity (FIG. 2B). Each drug treatment was repeated at least three times.

For test [2], the system named is release of arachidonic acid. Particulars: cited from earlier work.

Turning to `COc1ccc(C(=O)/C=C/c2ccccc2)cc1` [4′-methoxy chalcone], the “recovery of dFmr1 CGG90 mutant flies” value in test [1] worked out at 3%. Further, in the test on dFmr1 CGG90 mutant flies, the “percentage of normal locomotion activity in dFmr1 CGG90 mutant flies” value (“percentage of normal locomotion activity” below) turned out to be 75% and the “effect on locomotion deficits caused by fragile X premutation rCGG repeats (in words)” value (shortened to “effect on locomotion deficits caused”) was “significant suppression of the locomotion activity deficit”.

As to `C[C@@H]1C[C@H]2[C@@H]3CCC4=CC(=O)C=C[C@]4(C)[C@@]3(F)[C@@H](O)C[C@]2(C)[C@@]1(O)C(=O)CO` [dexamethasone], the “recovery of dFmr1 CGG90 mutant flies” value in test [1] is 5%. Besides, in the test on dFmr1 CGG90 mutant flies, the “percentage of normal locomotion activity” value is on record as 90%.

With `CC1(C)O[C@@H]2C[C@H]3[C@@H]4C[C@H](F)C5=CC(=O)C=C[C@]5(C)[C@@]4(F)[C@@H](O)C[C@]3(C)[C@]2(C(=O)CO)O1` [fluocilone acetonide], the “recovery of dFmr1 CGG90 mutant flies” value in test [1] turned out to be 7.5%. Also, in test [1] (40 μm compound in food, heat shock at day 2, scored after 10-15 days), the “suppression of lethality caused by fragile X premutation rCGG repeats (in words)” value was “suppress both lethality and locomotion deficits”. In the test on dFmr1 CGG90 mutant flies, the “percentage of normal locomotion activity” value was 99%. Also, the “effect on locomotion deficits caused” value is “significant suppression of the locomotion activity deficit” in the test with dFmr1 CGG90 mutant flies; “significantly ameliorate the locomotion defects” with dFmr1 CGG90 mutant flies (listed as Fluocinolone acetonide); “suppress both lethality and locomotion deficits” in the test on dFmr1 CGG90 mutant flies (listed as fluocinolone acetonide).

As to `CCN(CC)CCCC(C)Nc1c2ccc(Cl)cc2nc2ccc(OC)cc12` (stereo not shown) [quinacrine], in test [2], the “release of arachidonic acid” value is recorded as “blocked”.

In the case of `Cc1cccc(C)c1N=C1NCCCS1` [xylaxine], the “recovery of dFmr1 CGG90 mutant flies” value in test [1] stood at 5%. For the same compound, the “percentage of normal locomotion activity” value in the test with dFmr1 CGG90 mutant flies was determined as 80%. Besides, the “effect on locomotion deficits caused” value is reported as “significant suppression of the locomotion activity deficit” in the test with dFmr1 CGG90 mutant flies and “significantly ameliorate the locomotion defects” in the test with dFmr1 CGG90 mutant flies (listed as xylazine).
